# Numbers after ± are expanded uncertainties.
# Test: molar heat capacity at constant pressure
# Conditions: 101.33 kPa, Crystal, DSC
smiles,measurement,setting,value
O=C(O)c1ccccc1 [benzoic acid],molar heat capacity at constant pressure,208.72 K,104.86 ± 4.3 J/K/mol
same,molar heat capacity at constant pressure,210.22 K,105.69 ± 4.3 J/K/mol
same,molar heat capacity at constant pressure,211.72 K,106.52 ± 4.3 J/K/mol
same,molar heat capacity at constant pressure,213.72 K,107.61 ± 4.4 J/K/mol
same,molar heat capacity at constant pressure,216.22 K,108.96 ± 4.4 J/K/mol
same,molar heat capacity at constant pressure,218.22 K,110.02 ± 4.5 J/K/mol
same,molar heat capacity at constant pressure,221.72 K,111.86 ± 4.5 J/K/mol
same,molar heat capacity at constant pressure,224.22 K,113.15 ± 4.6 J/K/mol
same,molar heat capacity at constant pressure,226.72 K,114.43 ± 4.7 J/K/mol
same,molar heat capacity at constant pressure,227.22 K,114.68 ± 4.7 J/K/mol
same,molar heat capacity at constant pressure,230.22 K,116.19 ± 4.7 J/K/mol
same,molar heat capacity at constant pressure,233.22 K,117.68 ± 4.8 J/K/mol
same,molar heat capacity at constant pressure,236.22 K,119.14 ± 4.8 J/K/mol
same,molar heat capacity at constant pressure,239.22 K,120.59 ± 4.9 J/K/mol
same,molar heat capacity at constant pressure,243.22 K,122.5 ± 5 J/K/mol
same,molar heat capacity at constant pressure,247.22 K,124.38 ± 5 J/K/mol
same,molar heat capacity at constant pressure,252.22 K,126.69 ± 5.2 J/K/mol
same,molar heat capacity at constant pressure,256.72 K,128.74 ± 5.2 J/K/mol
same,molar heat capacity at constant pressure,260.72 K,130.54 ± 5.3 J/K/mol
same,molar heat capacity at constant pressure,264.22 K,132.1 ± 5.4 J/K/mol
same,molar heat capacity at constant pressure,268.72 K,134.09 ± 5.5 J/K/mol
same,molar heat capacity at constant pressure,271.22 K,135.19 ± 5.5 J/K/mol
same,molar heat capacity at constant pressure,273.22 K,136.06 ± 5.5 J/K/mol
same,molar heat capacity at constant pressure,276.72 K,137.59 ± 5.6 J/K/mol
same,molar heat capacity at constant pressure,279.72 K,138.9 ± 5.6 J/K/mol
same,molar heat capacity at constant pressure,283.22 K,140.41 ± 5.7 J/K/mol
same,molar heat capacity at constant pressure,287.22 K,142.15 ± 5.8 J/K/mol
same,molar heat capacity at constant pressure,291.72 K,144.1 ± 5.8 J/K/mol
same,molar heat capacity at constant pressure,292.22 K,144.31 ± 5.9 J/K/mol
same,molar heat capacity at constant pressure,293.22 K,144.75 ± 5.9 J/K/mol
same,molar heat capacity at constant pressure,294.22 K,145.18 ± 5.9 J/K/mol
same,molar heat capacity at constant pressure,295.22 K,145.61 ± 5.9 J/K/mol
same,molar heat capacity at constant pressure,297.72 K,146.7 ± 6 J/K/mol
same,molar heat capacity at constant pressure,298.15 K,146.89 ± 6 J/K/mol
same,molar heat capacity at constant pressure,298.22 K,146.92 ± 6 J/K/mol
same,molar heat capacity at constant pressure,298.72 K,147.13 ± 6 J/K/mol
same,molar heat capacity at constant pressure,301.72 K,148.44 ± 6 J/K/mol
same,molar heat capacity at constant pressure,303.72 K,149.32 ± 6.1 J/K/mol
same,molar heat capacity at constant pressure,305.72 K,150.19 ± 6.1 J/K/mol
same,molar heat capacity at constant pressure,307.72 K,151.07 ± 6.1 J/K/mol
same,molar heat capacity at constant pressure,310.22 K,152.18 ± 6.2 J/K/mol
same,molar heat capacity at constant pressure,314.22 K,153.96 ± 6.2 J/K/mol
same,molar heat capacity at constant pressure,318.22 K,155.75 ± 6.3 J/K/mol
same,molar heat capacity at constant pressure,321.22 K,157.11 ± 6.4 J/K/mol
CSCCC(N)C(=O)O (racemic) [DL-2-amino-4-(methylthio)butanoic acid],molar heat capacity at constant pressure,208.72 K,145.39 ± 5.9 J/K/mol
same,molar heat capacity at constant pressure,210.22 K,145.59 ± 5.9 J/K/mol
same,molar heat capacity at constant pressure,211.72 K,146.57 ± 6 J/K/mol
same,molar heat capacity at constant pressure,213.72 K,147.97 ± 6 J/K/mol
same,molar heat capacity at constant pressure,216.22 K,150.38 ± 6.1 J/K/mol
same,molar heat capacity at constant pressure,218.22 K,152.14 ± 6.2 J/K/mol
same,molar heat capacity at constant pressure,221.72 K,155.91 ± 6.3 J/K/mol
same,molar heat capacity at constant pressure,224.22 K,157.49 ± 6.4 J/K/mol
same,molar heat capacity at constant pressure,226.72 K,159.11 ± 6.5 J/K/mol
same,molar heat capacity at constant pressure,227.22 K,159.42 ± 6.5 J/K/mol
same,molar heat capacity at constant pressure,230.22 K,161.3 ± 6.5 J/K/mol
same,molar heat capacity at constant pressure,233.22 K,162.93 ± 6.6 J/K/mol
same,molar heat capacity at constant pressure,236.22 K,164.63 ± 6.7 J/K/mol
same,molar heat capacity at constant pressure,239.22 K,166.6 ± 6.8 J/K/mol
same,molar heat capacity at constant pressure,243.22 K,168.79 ± 6.9 J/K/mol
same,molar heat capacity at constant pressure,247.22 K,170.83 ± 6.9 J/K/mol
same,molar heat capacity at constant pressure,252.22 K,173.41 ± 7 J/K/mol
same,molar heat capacity at constant pressure,256.72 K,176.16 ± 7.2 J/K/mol
same,molar heat capacity at constant pressure,260.72 K,178.94 ± 7.3 J/K/mol
same,molar heat capacity at constant pressure,264.22 K,181.37 ± 7.4 J/K/mol
same,molar heat capacity at constant pressure,268.72 K,184.35 ± 7.5 J/K/mol
same,molar heat capacity at constant pressure,271.22 K,184.84 ± 7.5 J/K/mol
same,molar heat capacity at constant pressure,273.22 K,187.3 ± 7.6 J/K/mol
same,molar heat capacity at constant pressure,276.72 K,190.45 ± 7.7 J/K/mol
same,molar heat capacity at constant pressure,279.72 K,192.56 ± 7.8 J/K/mol
same,molar heat capacity at constant pressure,283.22 K,194.93 ± 7.9 J/K/mol
same,molar heat capacity at constant pressure,287.22 K,196.84 ± 8 J/K/mol
same,molar heat capacity at constant pressure,291.72 K,199.53 ± 8.1 J/K/mol
same,molar heat capacity at constant pressure,292.22 K,199.85 ± 8.1 J/K/mol
same,molar heat capacity at constant pressure,293.22 K,200.43 ± 8.1 J/K/mol
same,molar heat capacity at constant pressure,294.22 K,201.59 ± 8.2 J/K/mol
same,molar heat capacity at constant pressure,295.22 K,202.47 ± 8.2 J/K/mol
same,molar heat capacity at constant pressure,297.72 K,205.07 ± 8.3 J/K/mol
same,molar heat capacity at constant pressure,298.15 K,205.16 ± 8.3 J/K/mol
same,molar heat capacity at constant pressure,298.22 K,205.65 ± 8.3 J/K/mol
same,molar heat capacity at constant pressure,298.72 K,205.99 ± 8.4 J/K/mol
same,molar heat capacity at constant pressure,301.72 K,208.47 ± 8.5 J/K/mol
same,molar heat capacity at constant pressure,303.72 K,209.85 ± 8.5 J/K/mol
same,molar heat capacity at constant pressure,305.72 K,211.52 ± 8.6 J/K/mol
same,molar heat capacity at constant pressure,307.72 K,212.85 ± 8.7 J/K/mol
same,molar heat capacity at constant pressure,310.22 K,214.89 ± 8.7 J/K/mol
same,molar heat capacity at constant pressure,314.22 K,218.21 ± 8.9 J/K/mol
same,molar heat capacity at constant pressure,318.22 K,222.26 ± 9 J/K/mol
same,molar heat capacity at constant pressure,321.22 K,225.76 ± 9.2 J/K/mol

# — the NIST ThermoML archive (doi:10.1016/j.jct.2019.04.006)
